PMC11882969 (Nature Communications, 2025)
“And” between values parts separate entries of the source, which are not always exact repeats. Equal entries are not always repeated.

How the values were obtained:
Assay type in all cases: cell-based
[1] = molecular target: panel of 320 non-olfactory GPCRs (Homo sapiens, UniProt O00254)
[2] = molecular target: panel of 320 non-olfactory GPCRs (Homo sapiens, UniProt O00270)
[3] = molecular target: panel of 320 non-olfactory GPCRs (Homo sapiens, UniProt P13945)
[4] = molecular target: panel of 320 non-olfactory GPCRs (Homo sapiens, UniProt P21452)
[5] = molecular target: panel of 320 non-olfactory GPCRs (Homo sapiens, UniProt P21554)
[6] = molecular target: panel of 320 non-olfactory GPCRs (Homo sapiens, UniProt P21918)
[7] = molecular target: panel of 320 non-olfactory GPCRs (Homo sapiens, UniProt P25089)
[8] = molecular target: panel of 320 non-olfactory GPCRs (Homo sapiens, UniProt P28222)
[9] = molecular target: panel of 320 non-olfactory GPCRs (Homo sapiens, UniProt P28335)
[10] = molecular target: panel of 320 non-olfactory GPCRs (Homo sapiens, UniProt P30542)
[11] = molecular target: panel of 320 non-olfactory GPCRs (Homo sapiens, UniProt P33032)
[12] = molecular target: panel of 320 non-olfactory GPCRs (Homo sapiens, UniProt P35346)
[13] = molecular target: panel of 320 non-olfactory GPCRs (Homo sapiens, UniProt P35348)
[14] = molecular target: panel of 320 non-olfactory GPCRs (Homo sapiens, UniProt P41231)
[15] = molecular target: panel of 320 non-olfactory GPCRs (Homo sapiens, UniProt P46095)
[16] = molecular target: panel of 320 non-olfactory GPCRs (Homo sapiens, UniProt P47871)
[17] = molecular target: panel of 320 non-olfactory GPCRs (Homo sapiens, UniProt P48145)
[18] = molecular target: panel of 320 non-olfactory GPCRs (Homo sapiens, UniProt P51677)
[19] = molecular target: panel of 320 non-olfactory GPCRs (Homo sapiens, UniProt P51685)
[20] = molecular target: panel of 320 non-olfactory GPCRs (Homo sapiens, UniProt P55085)
[21] = molecular target: panel of 320 non-olfactory GPCRs (Homo sapiens, UniProt P61073)
[22] = molecular target: panel of 320 non-olfactory GPCRs (Homo sapiens, UniProt Q13304)
[23] = molecular target: panel of 320 non-olfactory GPCRs (Homo sapiens, UniProt Q15760)
[24] = molecular target: panel of 320 non-olfactory GPCRs (Homo sapiens, UniProt Q16538)
[25] = molecular target: panel of 320 non-olfactory GPCRs (Homo sapiens, UniProt Q16602)
[26] = molecular target: panel of 320 non-olfactory GPCRs (Homo sapiens, UniProt Q6NV75)
[27] = molecular target: panel of 320 non-olfactory GPCRs (Homo sapiens, UniProt Q86SM5)
[28] = molecular target: panel of 320 non-olfactory GPCRs (Homo sapiens, UniProt Q8IZF2)
[29] = molecular target: panel of 320 non-olfactory GPCRs (Homo sapiens, UniProt Q8N6U8)
[30] = molecular target: panel of 320 non-olfactory GPCRs (Homo sapiens, UniProt Q8TDT2)
[31] = molecular target: panel of 320 non-olfactory GPCRs (Homo sapiens, UniProt Q96LB1)
[32] = molecular target: panel of 320 non-olfactory GPCRs (Homo sapiens, UniProt Q9BPV8)
[33] = molecular target: panel of 320 non-olfactory GPCRs (Homo sapiens, UniProt Q9BXC1)
[34] = molecular target: panel of 320 non-olfactory GPCRs (Homo sapiens, UniProt Q9HBW0)
[35] = molecular target: panel of 320 non-olfactory GPCRs (Homo sapiens, UniProt Q9HC97)
[36] = molecular target: panel of 320 non-olfactory GPCRs (Homo sapiens, UniProt Q9NPC1)
[37] = molecular target: panel of 320 non-olfactory GPCRs (Homo sapiens, UniProt Q9UNW8)

Sequence of panel of 320 non-olfactory GPCRs (Homo sapiens, UniProt Q8TDT2) (Q8TDT2 whole entry): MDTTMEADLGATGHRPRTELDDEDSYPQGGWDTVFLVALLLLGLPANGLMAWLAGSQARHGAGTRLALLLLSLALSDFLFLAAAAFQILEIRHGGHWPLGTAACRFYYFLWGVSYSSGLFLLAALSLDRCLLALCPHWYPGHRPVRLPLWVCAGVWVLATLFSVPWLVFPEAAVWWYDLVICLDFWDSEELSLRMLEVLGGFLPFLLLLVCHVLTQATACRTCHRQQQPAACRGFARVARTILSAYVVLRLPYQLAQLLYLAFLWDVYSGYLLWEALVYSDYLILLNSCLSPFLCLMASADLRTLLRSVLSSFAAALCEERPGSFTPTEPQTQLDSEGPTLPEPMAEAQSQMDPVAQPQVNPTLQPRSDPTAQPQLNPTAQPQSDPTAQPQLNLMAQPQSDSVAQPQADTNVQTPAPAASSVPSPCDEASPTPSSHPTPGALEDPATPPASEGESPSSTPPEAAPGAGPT
Sequence of panel of 320 non-olfactory GPCRs (Homo sapiens, UniProt P47871) (P47871 26-477): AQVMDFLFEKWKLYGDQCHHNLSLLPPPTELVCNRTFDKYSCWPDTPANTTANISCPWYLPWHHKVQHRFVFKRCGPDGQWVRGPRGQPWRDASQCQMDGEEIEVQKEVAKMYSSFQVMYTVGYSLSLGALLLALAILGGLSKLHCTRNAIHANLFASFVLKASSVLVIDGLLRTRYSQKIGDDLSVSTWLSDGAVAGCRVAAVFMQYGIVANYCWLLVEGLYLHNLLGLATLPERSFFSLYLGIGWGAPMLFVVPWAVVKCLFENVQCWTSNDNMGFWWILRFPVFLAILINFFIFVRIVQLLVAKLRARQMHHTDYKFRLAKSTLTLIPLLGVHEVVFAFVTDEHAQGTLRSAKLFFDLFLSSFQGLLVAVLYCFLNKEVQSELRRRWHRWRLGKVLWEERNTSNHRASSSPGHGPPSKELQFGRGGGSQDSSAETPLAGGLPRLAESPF
Sequence of panel of 320 non-olfactory GPCRs (Homo sapiens, UniProt Q16602) (Q16602 23-461): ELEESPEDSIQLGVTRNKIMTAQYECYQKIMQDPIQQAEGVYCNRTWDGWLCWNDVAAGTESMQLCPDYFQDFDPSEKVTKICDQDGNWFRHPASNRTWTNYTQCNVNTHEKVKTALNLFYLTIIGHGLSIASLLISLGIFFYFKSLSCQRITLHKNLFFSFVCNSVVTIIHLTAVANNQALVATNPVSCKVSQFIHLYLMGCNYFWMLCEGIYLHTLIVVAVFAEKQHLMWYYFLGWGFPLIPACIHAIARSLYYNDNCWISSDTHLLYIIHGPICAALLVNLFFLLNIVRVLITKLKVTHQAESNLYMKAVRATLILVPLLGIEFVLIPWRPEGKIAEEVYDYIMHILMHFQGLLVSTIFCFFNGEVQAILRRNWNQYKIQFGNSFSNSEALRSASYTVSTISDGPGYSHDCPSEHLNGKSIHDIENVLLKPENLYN
Sequence of panel of 320 non-olfactory GPCRs (Homo sapiens, UniProt Q96LB1) (Q96LB1 whole entry): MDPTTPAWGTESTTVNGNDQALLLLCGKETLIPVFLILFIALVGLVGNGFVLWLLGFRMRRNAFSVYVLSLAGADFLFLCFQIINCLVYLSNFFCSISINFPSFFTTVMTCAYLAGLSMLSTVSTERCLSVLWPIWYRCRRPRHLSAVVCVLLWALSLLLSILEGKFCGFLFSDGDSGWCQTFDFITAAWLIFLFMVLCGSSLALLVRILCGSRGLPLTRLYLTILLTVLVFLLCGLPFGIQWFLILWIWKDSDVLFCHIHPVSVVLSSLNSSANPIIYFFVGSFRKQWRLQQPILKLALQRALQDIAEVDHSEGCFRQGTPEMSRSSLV
Sequence of panel of 320 non-olfactory GPCRs (Homo sapiens, UniProt P28222) (P28222 whole entry): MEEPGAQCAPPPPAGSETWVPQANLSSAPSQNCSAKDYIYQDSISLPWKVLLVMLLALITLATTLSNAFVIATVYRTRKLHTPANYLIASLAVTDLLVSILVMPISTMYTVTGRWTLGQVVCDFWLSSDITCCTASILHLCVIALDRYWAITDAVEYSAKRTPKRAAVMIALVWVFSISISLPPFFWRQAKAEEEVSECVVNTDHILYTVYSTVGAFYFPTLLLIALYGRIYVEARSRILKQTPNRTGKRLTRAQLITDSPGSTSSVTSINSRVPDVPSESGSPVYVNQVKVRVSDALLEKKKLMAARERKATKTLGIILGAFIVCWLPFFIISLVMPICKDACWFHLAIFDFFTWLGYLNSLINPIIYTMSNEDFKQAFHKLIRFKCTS
Sequence of panel of 320 non-olfactory GPCRs (Homo sapiens, UniProt P33032) (P33032 whole entry): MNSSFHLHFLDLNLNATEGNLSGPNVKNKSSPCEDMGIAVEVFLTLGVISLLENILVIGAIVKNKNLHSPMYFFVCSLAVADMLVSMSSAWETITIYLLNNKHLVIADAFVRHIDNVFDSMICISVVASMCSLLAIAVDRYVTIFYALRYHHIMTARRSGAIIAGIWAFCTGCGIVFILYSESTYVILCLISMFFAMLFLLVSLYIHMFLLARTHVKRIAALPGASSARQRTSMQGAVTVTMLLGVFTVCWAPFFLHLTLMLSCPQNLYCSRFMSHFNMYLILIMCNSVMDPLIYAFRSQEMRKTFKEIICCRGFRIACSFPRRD
Sequence of panel of 320 non-olfactory GPCRs (Homo sapiens, UniProt P41231) (P41231 whole entry): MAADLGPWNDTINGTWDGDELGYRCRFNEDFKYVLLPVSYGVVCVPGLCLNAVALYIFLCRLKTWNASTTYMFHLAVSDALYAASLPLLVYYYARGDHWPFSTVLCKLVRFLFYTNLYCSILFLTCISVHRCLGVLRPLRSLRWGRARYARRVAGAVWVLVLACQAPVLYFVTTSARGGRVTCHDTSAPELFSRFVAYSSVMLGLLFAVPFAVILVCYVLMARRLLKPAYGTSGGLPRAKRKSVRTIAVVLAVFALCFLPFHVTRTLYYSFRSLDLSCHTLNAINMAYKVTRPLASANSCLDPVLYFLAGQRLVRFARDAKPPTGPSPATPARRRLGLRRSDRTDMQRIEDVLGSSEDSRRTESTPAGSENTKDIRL
Sequence of panel of 320 non-olfactory GPCRs (Homo sapiens, UniProt P61073) (P61073 whole entry): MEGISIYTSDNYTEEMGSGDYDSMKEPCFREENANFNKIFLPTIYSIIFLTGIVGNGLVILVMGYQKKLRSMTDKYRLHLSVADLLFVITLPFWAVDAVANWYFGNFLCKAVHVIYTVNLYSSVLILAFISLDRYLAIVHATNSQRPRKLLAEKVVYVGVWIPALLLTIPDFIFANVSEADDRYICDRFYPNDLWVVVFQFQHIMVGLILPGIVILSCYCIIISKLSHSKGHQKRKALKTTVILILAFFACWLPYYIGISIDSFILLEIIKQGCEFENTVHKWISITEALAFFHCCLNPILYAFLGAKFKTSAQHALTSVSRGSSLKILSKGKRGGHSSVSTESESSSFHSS
Sequence of panel of 320 non-olfactory GPCRs (Homo sapiens, UniProt O00254) (O00254 22-374): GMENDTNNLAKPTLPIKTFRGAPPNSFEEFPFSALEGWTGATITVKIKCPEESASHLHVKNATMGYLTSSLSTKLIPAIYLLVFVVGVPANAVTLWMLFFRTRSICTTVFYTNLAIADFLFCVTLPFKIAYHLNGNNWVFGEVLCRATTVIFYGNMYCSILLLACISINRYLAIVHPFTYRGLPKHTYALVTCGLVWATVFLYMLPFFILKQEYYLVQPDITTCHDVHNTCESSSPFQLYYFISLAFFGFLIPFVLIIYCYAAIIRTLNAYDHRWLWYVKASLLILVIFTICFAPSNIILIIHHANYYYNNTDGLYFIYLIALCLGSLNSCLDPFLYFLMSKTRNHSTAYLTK
Sequence of panel of 320 non-olfactory GPCRs (Homo sapiens, UniProt P35346) (P35346 whole entry): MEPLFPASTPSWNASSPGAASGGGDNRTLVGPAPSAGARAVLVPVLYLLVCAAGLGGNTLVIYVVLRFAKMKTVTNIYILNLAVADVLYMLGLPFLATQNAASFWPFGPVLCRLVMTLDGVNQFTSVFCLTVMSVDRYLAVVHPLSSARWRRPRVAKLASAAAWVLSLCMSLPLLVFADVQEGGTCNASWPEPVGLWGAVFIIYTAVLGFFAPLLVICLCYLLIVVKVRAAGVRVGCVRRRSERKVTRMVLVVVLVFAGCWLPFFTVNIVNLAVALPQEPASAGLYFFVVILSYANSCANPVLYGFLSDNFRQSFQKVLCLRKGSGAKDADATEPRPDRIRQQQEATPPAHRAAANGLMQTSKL
Sequence of panel of 320 non-olfactory GPCRs (Homo sapiens, UniProt P30542) (P30542 whole entry): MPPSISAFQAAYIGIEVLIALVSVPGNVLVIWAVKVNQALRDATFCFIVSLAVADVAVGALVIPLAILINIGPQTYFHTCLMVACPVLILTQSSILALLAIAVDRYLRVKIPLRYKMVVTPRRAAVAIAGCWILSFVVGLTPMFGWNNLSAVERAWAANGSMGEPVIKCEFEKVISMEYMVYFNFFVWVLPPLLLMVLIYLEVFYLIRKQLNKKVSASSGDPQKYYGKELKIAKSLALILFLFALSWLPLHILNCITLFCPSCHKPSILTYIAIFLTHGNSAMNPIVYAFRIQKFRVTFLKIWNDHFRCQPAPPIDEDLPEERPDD
Sequence of panel of 320 non-olfactory GPCRs (Homo sapiens, UniProt Q16538) (Q16538 whole entry): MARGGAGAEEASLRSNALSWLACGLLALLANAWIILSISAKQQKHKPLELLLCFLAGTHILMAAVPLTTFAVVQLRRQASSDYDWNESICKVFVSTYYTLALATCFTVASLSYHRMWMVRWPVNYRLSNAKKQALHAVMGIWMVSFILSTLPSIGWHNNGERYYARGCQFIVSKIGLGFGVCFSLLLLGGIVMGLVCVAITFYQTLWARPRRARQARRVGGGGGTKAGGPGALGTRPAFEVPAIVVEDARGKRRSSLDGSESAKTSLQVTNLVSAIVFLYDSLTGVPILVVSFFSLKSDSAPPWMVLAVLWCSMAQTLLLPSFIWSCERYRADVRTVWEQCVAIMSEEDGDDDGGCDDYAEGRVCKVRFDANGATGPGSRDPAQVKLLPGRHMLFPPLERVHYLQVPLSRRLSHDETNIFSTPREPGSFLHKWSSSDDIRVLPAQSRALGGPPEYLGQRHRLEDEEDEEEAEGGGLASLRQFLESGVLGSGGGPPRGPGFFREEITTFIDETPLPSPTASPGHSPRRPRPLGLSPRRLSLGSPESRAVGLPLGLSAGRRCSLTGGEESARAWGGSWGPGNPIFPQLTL

Compound | Fold of Basal RLU [1] | Fold of Basal RLU [2] | Fold of Basal RLU [3] | Fold of Basal RLU [4] | Fold of Basal RLU [5] | Fold of Basal RLU [6] | Fold of Basal RLU [7] | Fold of Basal RLU [8] | Fold of Basal RLU [9] | Fold of Basal RLU [10] | Fold of Basal RLU [11] | Fold of Basal RLU [12] | Fold of Basal RLU [13] | Fold of Basal RLU [14] | Fold of Basal RLU [15] | Fold of Basal RLU [16] | Fold of Basal RLU [17] | Fold of Basal RLU [18] | Fold of Basal RLU [19] | Fold of Basal RLU [20] | also measured
Cc1cc(C(=O)NC(C)(c2ccco2)c2ccco2)nn1-c1cccc(C(F)(F)F)c1 [‘4936] | 1 fold and 0.7 fold and 0.9 fold and 1.1 fold | 1.4 fold and 1.2 fold and 1.7 fold and 2.2 fold | 0.9 and 0.7 and 1 | 1.3 fold and 1.1 fold and 1.5 fold | 5.5 and 5.4 and 5.6 | 1.1 and 1.3 and 1.4 | 1.2 fold and 1.3 fold and 1.8 fold | 1.4 fold and 1.2 fold and 1.3 fold | 1.5 fold and 1.3 fold and 1.1 fold | 6.4 fold and 5.8 fold and 6.3 fold and 7.4 fold | 1.1 fold and 1.2 fold and 1.3 fold and 1 fold | 1 and 0.7 and 0.8 | 0.6 and 0.7 and 1.1 | 0.9 fold and 1.2 fold and 1 fold and 1.1 fold | 1.3 fold and 1 fold and 1.2 fold and 1.1 fold | 1.3 and 1.1 and 1.4 and 0.8 | 0.6 and 1.1 and 0.7 | 1 fold and 0.9 fold and 1.4 fold | 1.5 and 1.1 and 1.2 and 0.9 | 0.9 and 1.3 and 1.1 | Fold of Basal RLU [21]: 1 fold and 1.3 fold and 1.2 fold; Fold of Basal RLU [22]: 1.6 fold and 1.4 fold and 1.1 fold; Fold of Basal RLU [23]: 0.8 fold and 1 fold; Fold of Basal RLU [24]: 0.9 and 1.2 and 1.1 and 1.7; Fold of Basal RLU [25]: 1 and 0.6 and 0.5; Fold of Basal RLU [26]: 1.7 fold and 1.2 fold and 1.4 fold and 2.1 fold; Fold of Basal RLU [27]: 1.1 fold and 1 fold; Fold of Basal RLU [28]: 2.1 fold and 2.4 fold and 1.6 fold and 2.5 fold; Fold of Basal RLU [29]: 1.1 fold and 1.2 fold; Fold of Basal RLU [30]: 1.1 fold and 0.9 fold and 1 fold; Fold of Basal RLU [31]: 1.3 fold and 1.2 fold and 1.7 fold and 1.4 fold; Fold of Basal RLU [32]: 1.3 fold and 1.5 fold and 1.7 fold and 1.8 fold; Fold of Basal RLU [33]: 1 and 1.1 and 1.3; Fold of Basal RLU [34]: 0.7 and 0.8 and 1 and 1.2; Fold of Basal RLU [35]: 1 fold and 1.4 fold and 0.9 fold; Fold of Basal RLU [36]: 0.6 fold and 0.8 fold and 0.7 fold and 0.9 fold; Fold of Basal RLU [37]: 1.2 fold and 0.9 fold
COC(=O)[C@@](C)(NC(=O)c1cc(C)n(-c2cccc(C(F)(F)F)c2)n1)c1cccs1 [‘1350] | 0.9 fold and 1.1 fold | 1.1 fold and 1.4 fold and 1.2 fold and 1.6 fold | 1 and 1.5 and 1.9 and 1.1 | 1 fold and 1.1 fold and 0.9 fold | 5.2 and 4.9 and 5.3 | 0.5 and 0.4 and 0.6 | 1 fold and 1.1 fold | 1.3 fold and 1.1 fold and 1.2 fold | 1.6 fold and 1 fold and 1.3 fold and 1.2 fold | 1.2 fold and 1.7 fold and 1.6 fold and 2.1 fold | 1.3 fold and 1 fold and 1.2 fold and 1.1 fold | 0.4 and 0.7 and 0.6 and 0.5 | 1.1 and 0.9 and 1.3 | 1.3 fold and 1.4 fold and 1 fold | 1.1 fold and 0.8 fold and 1 fold | 0.8 and 1 and 1.2 and 1.1 | 1.2 and 1.8 and 1.3 and 1.4 | 0.9 fold and 1 fold and 1.2 fold | 1.6 and 1.3 and 1.1 and 1 | 0.8 and 1.2 | Fold of Basal RLU [21]: 1.2 fold and 1.1 fold and 1.3 fold; Fold of Basal RLU [22]: 1 fold and 1.2 fold and 0.8 fold and 1.1 fold; Fold of Basal RLU [23]: 0.9 fold and 1.2 fold and 1 fold; Fold of Basal RLU [24]: 0.8 and 1 and 0.6; Fold of Basal RLU [25]: 0.4 and 0.7 and 0.6; Fold of Basal RLU [26]: 0.8 fold and 0.7 fold and 1 fold and 0.9 fold; Fold of Basal RLU [27]: 0.7 fold and 0.8 fold; Fold of Basal RLU [28]: 1.1 fold and 1.3 fold; Fold of Basal RLU [29]: 1.2 fold and 1.1 fold and 1 fold; Fold of Basal RLU [30]: 1.2 fold and 1.1 fold and 0.8 fold and 1.5 fold; Fold of Basal RLU [31]: 1.7 fold and 1.5 fold and 1 fold and 1.1 fold; Fold of Basal RLU [32]: 1 fold and 1.1 fold and 1.4 fold and 1.6 fold; Fold of Basal RLU [33]: 0.9 and 1.3 and 1; Fold of Basal RLU [34]: 0.7 and 0.8 and 1.1 and 0.6; Fold of Basal RLU [35]: 1 fold and 0.9 fold and 1.1 fold; Fold of Basal RLU [36]: 0.8 fold and 1 fold and 0.6 fold and 0.7 fold; Fold of Basal RLU [37]: 0.8 fold and 1 fold
